This note sets out measurements from ChEMBL document CHEMBL1201862, “PubChem BioAssay data set” (2004).

The test system of test [1] is HEK293. Nature of the test: inhibition of NOD1-driven NF-kB reporter – cell-based, luminescence, uHTS, primary screen (AID 1578). Format: functional. The settings on record: Homo sapiens.
Test [2] has as its system HEK293. Nature of the test: cells. Format: functional, cell-based. The settings on record: Homo sapiens.
The test system of test [3] is HEK293. Nature of the test: cells. Format: functional, cell-based. The settings on record: Homo sapiens. The source holds these as a separate data set.
In test [4] the test system is HEK293. Nature of the test: NOD2 signaling inhibitors in MDP-stimulated cells, cell-based, uHTS, luminescence (AID 2001). To be noted: Homo sapiens. In kind it is functional.
Test [5] concerns HEK293. Nature of the test: cells. Format: functional, cell-based. The settings on record: Homo sapiens. The source holds these as a separate data set.
Test [6] has as its system HEK293. Nature of the test: cells. The settings on record: Homo sapiens.
Test [7] concerns the target T1, Tyrosine-protein phosphatase non-receptor type 22 (Homo sapiens, UniProt Q9Y2R2).
T1 sequence (Q9Y2R2 whole entry): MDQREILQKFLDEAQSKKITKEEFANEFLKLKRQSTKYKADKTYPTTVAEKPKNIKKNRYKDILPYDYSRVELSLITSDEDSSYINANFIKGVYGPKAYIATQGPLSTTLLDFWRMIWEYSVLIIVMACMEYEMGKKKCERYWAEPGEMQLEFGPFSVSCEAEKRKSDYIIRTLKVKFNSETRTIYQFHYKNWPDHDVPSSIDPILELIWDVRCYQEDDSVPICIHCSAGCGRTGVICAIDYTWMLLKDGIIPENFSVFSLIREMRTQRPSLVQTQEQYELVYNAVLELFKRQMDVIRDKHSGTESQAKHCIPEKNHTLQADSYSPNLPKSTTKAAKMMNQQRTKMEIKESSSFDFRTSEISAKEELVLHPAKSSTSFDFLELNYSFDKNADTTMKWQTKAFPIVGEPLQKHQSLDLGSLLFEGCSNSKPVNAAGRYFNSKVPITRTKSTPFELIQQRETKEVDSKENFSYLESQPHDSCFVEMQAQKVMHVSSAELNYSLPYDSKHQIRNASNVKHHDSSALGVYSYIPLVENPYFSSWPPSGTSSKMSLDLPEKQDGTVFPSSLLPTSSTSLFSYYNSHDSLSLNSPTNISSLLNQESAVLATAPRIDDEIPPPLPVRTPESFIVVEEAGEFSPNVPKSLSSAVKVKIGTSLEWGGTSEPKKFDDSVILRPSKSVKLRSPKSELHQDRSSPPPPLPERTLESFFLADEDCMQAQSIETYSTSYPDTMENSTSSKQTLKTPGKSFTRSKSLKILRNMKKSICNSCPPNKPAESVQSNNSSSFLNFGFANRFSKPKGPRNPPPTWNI
Nature of the test: LYP1 Fluorescent Assay using OMFP substrate for In Vitro dose response studies. [Related pubchem assays (depositor defined):AID1779, AID1784, AID435024].

In test [8] the target is T2, Dual specificity protein phosphatase 3 (Homo sapiens, UniProt P51452). Nature of the test: VHR1 phosphatase inhibitors, primary screen, biochemical, absorbance, uHTS (AID 1654).
The target in test [9] is T3, Tyrosine-protein phosphatase non-receptor type 7 (Homo sapiens, UniProt P35236).
T3 sequence (P35236 whole entry): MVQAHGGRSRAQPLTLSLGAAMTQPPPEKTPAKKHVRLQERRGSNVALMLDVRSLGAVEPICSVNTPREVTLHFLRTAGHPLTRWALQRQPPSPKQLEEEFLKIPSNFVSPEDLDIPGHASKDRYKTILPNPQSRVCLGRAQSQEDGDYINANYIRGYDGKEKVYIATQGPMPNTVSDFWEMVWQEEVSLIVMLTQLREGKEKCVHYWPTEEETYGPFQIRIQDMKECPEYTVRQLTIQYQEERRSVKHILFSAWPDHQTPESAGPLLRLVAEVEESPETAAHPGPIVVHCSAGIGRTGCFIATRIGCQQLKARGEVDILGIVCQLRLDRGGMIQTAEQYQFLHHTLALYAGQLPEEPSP
In kind it is functional.

Test [10] concerns the target T3, Tyrosine-protein phosphatase non-receptor type 7. Nature of the test: HTS HePTP Fluorescent Assay using OMFP substrate for In Vitro dose response studies. [Related pubchem assays (depositor defined):AID1059, AID1077, AID1784, AID2068, AID2085, AID435032, AID521]. Format: functional.
Test [11] has as its target T1, Tyrosine-protein phosphatase non-receptor type 22. Nature of the test: PTPN22 lymphoid phosphatase activity blockers – biochemical, fluorescence intensity, uHTS (AID 1779).
Test [12] addresses T2, Dual specificity protein phosphatase 3. Nature of the test: VHR1 phosphatase inhibitors, biochemical (AID 1878).
For test [13], the target named is T4, Dual specificity protein phosphatase 6 (Rattus norvegicus, UniProt Q64346).
T4 sequence (Q64346 whole entry): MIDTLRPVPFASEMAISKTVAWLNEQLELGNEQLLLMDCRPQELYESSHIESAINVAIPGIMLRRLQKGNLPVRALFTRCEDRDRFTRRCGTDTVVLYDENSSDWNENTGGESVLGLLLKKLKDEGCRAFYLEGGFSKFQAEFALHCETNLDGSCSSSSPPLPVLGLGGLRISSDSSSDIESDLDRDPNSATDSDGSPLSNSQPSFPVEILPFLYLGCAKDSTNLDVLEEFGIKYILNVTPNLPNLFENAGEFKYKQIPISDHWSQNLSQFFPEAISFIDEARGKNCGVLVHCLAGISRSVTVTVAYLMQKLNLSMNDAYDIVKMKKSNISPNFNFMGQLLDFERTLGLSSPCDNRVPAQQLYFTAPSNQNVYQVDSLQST
Nature of the test: inhibition of rat DUSP6 enzyme activity – biochemical, in vitro, primary screen (AID 425).

In test [14] the target is T1, Tyrosine-protein phosphatase non-receptor type 22. Nature of the test: SAR LYP1 Fluorescent Assay using pCAP substrate for In Vitro dose response studies - Set 2. [Related pubchem assays (depositor defined):AID1779, AID1784, AID2135, AID449727]. Format: functional.
The target of test [15] is Tyrosine-protein phosphatase non-receptor type 12 (Homo sapiens, UniProt Q05209). Nature of the test: SAR Selectivity Analysis of small molecule inhibitors of PEST using pCAP in a fluorescence assay. [Related pubchem assays (depositor defined):AID1779, AID1784, AID2135]. Format: functional.
The target in test [16] is T1, Tyrosine-protein phosphatase non-receptor type 22. Nature of the test: SAR LYP1 Fluorescent Assay using OMFP substrate for In Vitro dose response studies - Set 3. [Related pubchem assays (depositor defined):AID1779, AID1784, AID2140, AID2686]. In kind it is functional.
In test [17] the target is T3, Tyrosine-protein phosphatase non-receptor type 7. Nature of the test: inhibition of hematopoietic tyrosine phosphatase HePTP – biochemical, set 2, SAR follow-up (AID 449736). In kind it is functional.
Test [18] addresses T1, Tyrosine-protein phosphatase non-receptor type 22. Nature of the test: inhibition of lymphoid tyrosine phosphatase LYP – biochemical, pCAP fluorogenic substrate, fluorescence, set 3, SAR follow-up (AID 449727). Format: functional.
The target is the same in test [19]. Format: functional.
The target is the same in test [20]. Nature of the test: PubChem AID 2135.
The target is the same in test [21]. Nature of the test: PubChem AID 2140.
For test [22] the target is unchanged. Nature of the test: SAR LYP1 Fluorescent Assay using OMFP substrate for In Vitro dose response studies - Set 2. [Related pubchem assays (depositor defined):AID1779, AID1784, AID2140, AID449726, AID488869]. Format: functional.
Test [23] deals with T5, Low molecular weight phosphotyrosine protein phosphatase (Homo sapiens, UniProt P24666). In kind it is functional. To be noted: read-out: IC50_Mean.
The target in test [24] is T5, Low molecular weight phosphotyrosine protein phosphatase. Format: functional. To be noted: read-out: IC50_Mean. This is another data set of the same source.
Test [25] concerns the target T6, SUMO-activating enzyme (Homo sapiens, UniProt Q9UBT2). Nature of the test: blockers of UBC9-mediated SUMO conjugation – biochemical, AlphaScreen, SUMOylation inhibitor project, confirmation (AID 2018). In kind it is functional.
Test [26] addresses T6, SUMO-activating enzyme. Nature of the test: blockers of SAE1/SAE2–UBC9 SUMO transfer – biochemical, HTRF, uHTS, primary screen (AID 2006). In kind it is protein-complex assay.
The next test addresses T7, Coagulation factor XII (Homo sapiens, UniProt P00748).
T7 sequence (P00748 whole entry): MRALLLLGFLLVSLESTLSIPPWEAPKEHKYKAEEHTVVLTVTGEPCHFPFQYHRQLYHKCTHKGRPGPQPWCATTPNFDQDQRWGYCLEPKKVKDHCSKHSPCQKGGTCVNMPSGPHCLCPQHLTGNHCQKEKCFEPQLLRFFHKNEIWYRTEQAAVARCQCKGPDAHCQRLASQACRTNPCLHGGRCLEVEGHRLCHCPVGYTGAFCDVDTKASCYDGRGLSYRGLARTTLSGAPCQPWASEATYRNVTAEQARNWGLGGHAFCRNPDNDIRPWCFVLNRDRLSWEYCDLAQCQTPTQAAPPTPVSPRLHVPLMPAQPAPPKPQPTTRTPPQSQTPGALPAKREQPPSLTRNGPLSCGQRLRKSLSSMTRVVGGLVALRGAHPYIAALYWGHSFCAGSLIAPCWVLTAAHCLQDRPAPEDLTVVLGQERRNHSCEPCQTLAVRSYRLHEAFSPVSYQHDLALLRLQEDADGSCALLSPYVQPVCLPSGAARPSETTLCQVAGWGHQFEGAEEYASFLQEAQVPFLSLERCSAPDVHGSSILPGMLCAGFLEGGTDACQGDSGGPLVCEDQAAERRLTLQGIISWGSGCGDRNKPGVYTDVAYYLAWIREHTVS
In kind it is functional.

The target of test [27] is T8, Carboxy-terminal domain RNA polymerase II polypeptide A small phosphatase 1 (Homo sapiens, UniProt Q9GZU7).
T8 sequence (Q9GZU7 whole entry): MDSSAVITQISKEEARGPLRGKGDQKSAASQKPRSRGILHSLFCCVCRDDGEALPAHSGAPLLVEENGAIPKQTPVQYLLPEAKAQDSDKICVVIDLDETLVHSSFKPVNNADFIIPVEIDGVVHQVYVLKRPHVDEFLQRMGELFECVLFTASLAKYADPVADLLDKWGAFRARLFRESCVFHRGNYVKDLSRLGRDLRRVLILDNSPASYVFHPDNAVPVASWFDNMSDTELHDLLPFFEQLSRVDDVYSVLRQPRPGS
Nature of the test: CTDSP1 inhibitors, concentration-response, biochemical, absorbance readout, ultra-high-throughput screen actives (AID 540297). Format: functional.

Active and inactive are the calls of the source. Rule as the data show it, for most assays here: actives have a measured IC50 and inactives only a lower limit. Some results are limits rather than exact numbers.

T5 sequence (P24666 whole entry): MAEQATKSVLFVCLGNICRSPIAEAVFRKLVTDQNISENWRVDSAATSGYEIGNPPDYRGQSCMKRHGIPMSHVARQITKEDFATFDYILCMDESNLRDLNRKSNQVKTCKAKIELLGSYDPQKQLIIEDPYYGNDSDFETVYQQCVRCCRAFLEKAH
T6 sequence (Q9UBE0 whole entry): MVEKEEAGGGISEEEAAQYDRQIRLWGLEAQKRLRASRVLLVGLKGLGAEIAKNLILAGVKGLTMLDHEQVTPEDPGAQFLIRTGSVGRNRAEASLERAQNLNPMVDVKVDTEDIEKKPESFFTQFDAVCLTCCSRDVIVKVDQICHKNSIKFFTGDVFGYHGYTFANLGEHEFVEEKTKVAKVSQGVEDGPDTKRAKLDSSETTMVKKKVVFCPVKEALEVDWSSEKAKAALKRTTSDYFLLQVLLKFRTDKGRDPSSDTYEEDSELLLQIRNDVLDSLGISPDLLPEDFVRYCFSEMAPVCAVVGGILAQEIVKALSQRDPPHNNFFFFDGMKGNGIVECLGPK
T6 sequence (Q9UBT2 whole entry): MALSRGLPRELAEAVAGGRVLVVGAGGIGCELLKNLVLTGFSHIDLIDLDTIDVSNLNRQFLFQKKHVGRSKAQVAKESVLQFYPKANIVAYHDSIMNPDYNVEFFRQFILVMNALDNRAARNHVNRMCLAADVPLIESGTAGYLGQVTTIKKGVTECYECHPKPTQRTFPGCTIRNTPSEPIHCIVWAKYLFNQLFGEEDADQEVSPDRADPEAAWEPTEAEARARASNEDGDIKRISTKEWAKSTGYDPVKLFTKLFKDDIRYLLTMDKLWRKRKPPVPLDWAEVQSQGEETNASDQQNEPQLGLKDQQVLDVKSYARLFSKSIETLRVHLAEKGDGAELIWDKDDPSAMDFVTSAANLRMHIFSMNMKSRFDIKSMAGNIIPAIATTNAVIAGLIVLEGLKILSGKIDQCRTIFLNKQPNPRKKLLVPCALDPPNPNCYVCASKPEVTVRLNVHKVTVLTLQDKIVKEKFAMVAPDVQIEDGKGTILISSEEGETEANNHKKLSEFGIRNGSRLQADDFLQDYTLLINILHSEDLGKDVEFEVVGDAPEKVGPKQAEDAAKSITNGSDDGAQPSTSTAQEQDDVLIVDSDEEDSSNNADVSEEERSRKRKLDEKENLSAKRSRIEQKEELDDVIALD
T2 sequence (P51452 whole entry): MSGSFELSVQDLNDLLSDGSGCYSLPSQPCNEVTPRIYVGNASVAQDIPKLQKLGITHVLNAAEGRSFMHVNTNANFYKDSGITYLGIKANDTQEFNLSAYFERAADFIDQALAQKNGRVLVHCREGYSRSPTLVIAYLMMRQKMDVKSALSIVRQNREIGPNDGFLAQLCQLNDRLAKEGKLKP
Tyrosine-protein phosphatase non-receptor type 12, sequence (Q05209 whole entry): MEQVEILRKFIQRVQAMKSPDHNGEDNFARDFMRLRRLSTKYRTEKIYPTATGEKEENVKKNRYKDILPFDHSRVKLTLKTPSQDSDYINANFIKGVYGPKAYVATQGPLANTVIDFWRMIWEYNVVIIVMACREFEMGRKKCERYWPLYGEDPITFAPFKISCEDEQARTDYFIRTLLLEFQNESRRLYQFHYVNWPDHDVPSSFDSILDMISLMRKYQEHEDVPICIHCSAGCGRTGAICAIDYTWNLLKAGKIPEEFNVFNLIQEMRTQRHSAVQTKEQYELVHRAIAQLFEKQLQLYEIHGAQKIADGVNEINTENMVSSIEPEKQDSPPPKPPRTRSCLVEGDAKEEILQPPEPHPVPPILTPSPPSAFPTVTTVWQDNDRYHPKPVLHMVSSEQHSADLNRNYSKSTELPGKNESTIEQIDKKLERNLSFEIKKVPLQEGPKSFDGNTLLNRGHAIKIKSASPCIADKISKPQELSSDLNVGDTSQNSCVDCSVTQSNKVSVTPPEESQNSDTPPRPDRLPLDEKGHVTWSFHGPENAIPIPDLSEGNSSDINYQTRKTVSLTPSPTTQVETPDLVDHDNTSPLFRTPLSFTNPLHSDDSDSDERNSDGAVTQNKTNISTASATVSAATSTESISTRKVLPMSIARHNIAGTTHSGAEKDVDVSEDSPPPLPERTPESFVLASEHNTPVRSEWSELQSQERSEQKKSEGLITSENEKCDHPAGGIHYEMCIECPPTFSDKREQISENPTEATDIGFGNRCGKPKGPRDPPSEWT

For the compound `O=C(CSc1nc(O)c2c(-c3ccccc3)csc2n1)Nc1ccccc1`, in the test on HEK293 [1], the EC50 is 5.71 µM (active). Also, the IC50 with HEK293 [2] was 4.78 µM (active); in the test on HEK293 [3] it was 16 µM (active); in the test on HEK293 [4], 1.93 µM (active); in the test on HEK293 [5], > 20 µM (inactive); in the test with HEK293 [6], > 20 µM (inactive).

With `Cc1ccc(/C=C/c2nc(O)c3c(C)c(C(=O)O)sc3n2)cc1[N+](=O)[O-]`, the IC50 in [7] is 16.8 µM (active); in test [8], 11.1 µM (active); in test [9] it was 12.2 µM (active); in test [10] it was > 99 µM (inactive); in test [11], 12.9 µM (active); in [12], 1.62 µM (active). Also, the IC50 in test [13] is 8.48 µM (active); in test [14] it was 3.17 µM (active); in test [15], 3.43 µM (active); in test [16] it was 10.7 µM (active); in test [17] it was 2.92 µM (active); in test [18], 6.19 µM (active). Also, the IC50 in [19] was 11.2 µM (active); in [20], 6.6 µM (active); in test [21], 50.9 µM (active); in [22], 4.56 µM (active); in test [23] it was > 80 µM (inactive); in [24], 32.7 µM (inactive).

Take `COc1ccc(C2=NN(C(=O)CCCC(=O)O)C(c3cn(-c4ccccc4)nc3-c3ccccc3)C2)cc1` (stereo not drawn): the IC50 on SUMO-activating enzyme [25] is 19.8 µM (active); on SUMO-activating enzyme [26], 17.5 µM (active); on Coagulation factor XII it was > 50 µM (inactive); in test [27], 3.91 µM (active).
